The results in this text go back to patent US8013158B2, “Crystalline forms of topotecan hydrochloride and processes for making the same” (Scinopharm Taiwan Ltd., priority 2007, dated 2011).

A short description of data set [1]: Experiment 2: long-time stirring in ethyl acetate at room temperature, resulting crystalline form. The class given is physicochemical. Here is the method: Topotecan hydrochloride (4.0 g Form A or Form D) is stirred in ethyl acetate (40 mL) for a long time (40, 80, or 200 hours) at room temperature. The solids are filtered and washed with cool ethyl acetate. Dry under vacuum at room temperature.

A short description of data set [2]: Stability of crystalline forms held at room temperature, purity by HPLC. In kind it is physicochemical. Particulars: for Purity / Stability at room temperature: HPLC; for Stability at room temperature: over twenty days at room temperature. The source says:
The stabilities of some of the crystalline forms have been tested under various conditions. HPLC was used to determine the degree of degradation of topotecan hydrochloride over time.
The samples with different forms were held at room temperature for a specific period. We tested the purities of these samples by HPLC and observed the changes of their purities.
The changes to the purities of Forms D to I are summarized as follows: […]

Where [3] appears, read: room temperature, duration 0 hour, hydrochloride.
[4] abbreviates: room temperature, duration 3 days, hydrochloride.
The mark [5] stands for this setting: room temperature, duration 7 days, hydrochloride.
Setting [6] is: room temperature, duration 20 days, hydrochloride.
Setting [7] is: room temperature, duration 36 days, hydrochloride.
[8] abbreviates: room temperature, duration 32 days, hydrochloride.

Entries after “also recorded” stand apart in the source; their conditions may differ.

`CC[C@@]1(O)C(=O)OCc2c1cc1n(c2=O)Cc2cc3c(CN(C)C)c(O)ccc3nc2-1.Cl` [Form A, topotecan monohydrochloride pentahydrate, reference compound]: the “Crystalline form after stirring” value in data set [1] (stirred in ethyl acetate 40 h at room temperature, listed as From A) was “From A → A”; in data set [1] (stirred in ethyl acetate 80 h at room temperature), “transform to Form E; also recorded: Form A → E”; in data set [1] (stirred in ethyl acetate 200 h at room temperature), “Form A → E”.

For the compound `CC[C@@]1(O)C(=O)OCc2c1cc1n(c2=O)Cc2cc3c(CN(C)C)c(O)ccc3nc2-1.Cl` [Form D, topotecan hydrochloride], the “Stability at room temperature compared with other Forms” value in data set [2] (room temperature) was “better than other Forms”. Also, the Purity turned out to be 99.32% in data set [2] (setting [3]); 99.21% in data set [2] (setting [4]); 99.17% in data set [2] (setting [5]); 99.08% in data set [2] (setting [6]); 99.43% in data set [2] (setting [7]). Moreover, in data set [1] (long time stirring in ethyl acetate), the “Stability on long time stirring compared with Form A” value is recorded as “more stable than Form A”. Further, the “Crystalline form after stirring” value in data set [1] (stirred in ethyl acetate 40 h at room temperature, hydrochloride) is listed as “Form D → D”; in data set [1] (stirred in ethyl acetate 80 h at room temperature, hydrochloride), “Form D → D”; in data set [1] (stirred in ethyl acetate 200 h at room temperature, hydrochloride), “stable; also recorded: Form D → D”.

As to `CC[C@@]1(O)C(=O)OCc2c1cc1n(c2=O)Cc2cc3c(CN(C)C)c(O)ccc3nc2-1.Cl` [Form E, topotecan hydrochloride], the Purity in data set [2] (setting [3]) came out at 98.99%; in data set [2] (setting [4]) it was 99.27%; in data set [2] (setting [5]), 99.31%; in data set [2] (setting [6]), 99.29%; in data set [2] (setting [7]), 99.30%.

On to `CC[C@@]1(O)C(=O)OCc2c1cc1n(c2=O)Cc2cc3c(CN(C)C)c(O)ccc3nc2-1.Cl` [Form F, topotecan hydrochloride], for which the Purity stood at 99.94% in data set [2] (setting [3]); 99.92% in data set [2] (setting [4]); 99.91% in data set [2] (room temperature, duration 16 days); 99.91% in data set [2] (setting [8]).

Consider `CC[C@@]1(O)C(=O)OCc2c1cc1n(c2=O)Cc2cc3c(CN(C)C)c(O)ccc3nc2-1.Cl` [Form G, topotecan hydrochloride], for which the Purity is recorded as 99.11% in data set [2] (setting [3]); 99.06% in data set [2] (setting [4]); 99.00% in data set [2] (setting [5]); 98.88% in data set [2] (setting [6]); 99.06% in data set [2] (setting [8]).

For the compound `CC[C@@]1(O)C(=O)OCc2c1cc1n(c2=O)Cc2cc3c(CN(C)C)c(O)ccc3nc2-1.Cl` [Form H, topotecan hydrochloride], the “Stability at room temperature” value in data set [2] was “substantially stable”. Further, the Purity in data set [2] (setting [3]) amounted to 99.92%; in data set [2] (setting [4]), 99.90%; in data set [2] (setting [5]) it was 99.92%; in data set [2] (setting [6]), 99.89%.

Take `CC[C@@]1(O)C(=O)OCc2c1cc1n(c2=O)Cc2cc3c(CN(C)C)c(O)ccc3nc2-1.Cl` [Form I, topotecan hydrochloride]: the “Stability at room temperature” value in data set [2] is “substantially stable”. Also, the Purity in data set [2] (setting [3]) is 99.70%; in data set [2] (setting [4]), 99.65%; in data set [2] (setting [5]), 99.56%; in data set [2] (setting [6]), 99.56%.
